According to US12162884B2, “Solid forms of (R)-N-(2-(5-fluoropyridin-3-yl)-8-isopropylpyrazolo[1,5-a] [1,3,5]triazin-4-yl)-2,3,4,9-tetrahydro-1H-carbazol-3-amine as aryl hydrocarbon receptor (AHR) inhibitors” (Ikena Oncology, Inc., priority 2019, dated 2024):
Converted amounts (≈) assume the structure as drawn. Marks after values point to notes of the source that are not given here.

How the values were obtained:
[1] = Solubility studies in water, FaSSIF, FeSSIF and FaSSGF (excess solids in 5 mL medium at 37° C., HPLC; pH, XRPD and NMR of remaining material); format: physicochemical; conditions: for solubility at 30 min / solubility at 120 min / solubility at 24 h: 37 °C, thermodynamic from solid; for pH: pH of solubility sample; for Solubility / solubility at 24 hours in FeSSIF: 37° C.; for solubility at 24 hours in FeSSIF: comparison among the tested forms
Experimental: Simulated fluids were sourced from and prepared according to biorelevant.com using their FaSSIF/FeSSIF/FaSSGF Powder (v1, formerly known as SIF Powder). Samples were prepared by adding excess solids to 5 mL of medium at 37° C. Samples were pulled and filtered at 30 minutes, 120 minutes, and 24 hours and tested for solution concentration using the HPLC parameters described below in Table 13.
The pH of the samples at each timepoint was also measured; pH paper was used at 30 minutes and 120 minutes due to the small sample size, and a pH meter was used at 24 hours. The remaining material from all trials was analyzed by XRPD after 24 hours to determine if any polymorphic form changes had taken place. The remaining material from trials in water was analyzed by NMR after 24 hours to determine if disassociation had taken place.

[2] = Stability studies at 40° C./75% RH (HPLC); format: physicochemical; conditions: for stability / degradation over time: Time 0, 1 week, 2 weeks, 4 weeks
Experimental: Stability studies of compound A, Form B, Compound 1, Form B, Compound 2, Form A, Compound 3, Form B, and Compound 4, Form A was carried out at 40° C./75% RH. Samples were stored in loosely capped vials in a chamber containing a saturated NaCl solution to achieve approximately 75% RH within the chamber. The chamber was stored in a 40° C. oven. Samples were analyzed at Time 0, 1 week, 2 weeks, and 4 weeks using the HPLC parameters described above in Table 13.

[3] = FaSSGF, fassgf or other biorelevant, 30 minutes
[4] = FaSSGF, fassgf or other biorelevant, 120 minutes
[5] = FaSSGF, fassgf or other biorelevant, 24 hours

Row | Compound | solubility at 30 min [1, 3] [µg/mL] | solubility at 120 min [1, 4] [µg/mL] | solubility at 24 h [1, 5] [µg/mL] | pH ([1]; FaSSGF, 30 minutes, pH paper) | pH ([1]; FaSSGF, 120 minutes, pH paper) | pH ([1]; FaSSGF, 24 hours, pH meter) | pH ([1]; FaSSIF, 30 minutes, pH paper) | pH ([1]; FaSSIF, 120 minutes, pH paper) | pH ([1]; FaSSIF, 24 hours, pH meter) | pH ([1]; FeSSIF, 30 minutes, pH paper) | pH ([1]; FeSSIF, 120 minutes, pH paper) | pH ([1]; FeSSIF, 24 hours, pH meter) | pH ([1]; Water, 30 minutes, pH paper) | pH ([1]; Water, 120 minutes, pH paper) | pH ([1]; Water, 24 hours, pH meter) | % Area ([2]; 1 Week, HPLC) [% Area] | % Area ([2]; 2 Weeks, HPLC) [% Area] | % Area ([2]; 4 Weeks, HPLC) [% Area] | stability / degradation over time ([2]; HPLC) | % Area ([2]; Time 0, HPLC) [% Area] | further results
1 | CC(C)c1cnn2c(N[C@@H]3CCc4[nH]c5ccccc5c4C3)nc(-c3cncc(F)c3)nc12.CCS(=O)(=O)O [Compound 1 Form B] | < 0.1 | < 0.1 | < 0.1 | 1.5 | 1.5 | 1.2 | 6 | 6 | 6.2 | 5 | 5 | 4.8 | 4.5 | 4.5 | 3.4 | 99.59 | 99.53 | 99.46 | equally stable | 99.90 | solubility at 30 min ([1]; FaSSIF, 30 minutes): 45 µg/mL; solubility at 120 min ([1]; FaSSIF, 120 minutes): 34 µg/mL; solubility at 24 h ([1]; FaSSIF, 24 hours): 18 µg/mL; solubility at 30 min ([1]; FeSSIF, 30 minutes): 58 µg/mL; solubility at 120 min ([1]; FeSSIF, 120 minutes): 56 µg/mL; solubility at 24 h ([1]; FeSSIF, 24 hours): 63 µg/mL; solubility at 30 min ([1]; water, 30 minutes): < 0.1 µg/mL; solubility at 120 min ([1]; water, 120 minutes): < 0.1 µg/mL; solubility at 24 h ([1]; water, 24 hours): < 0.1 µg/mL
2 | CC(C)c1cnn2c(N[C@@H]3CCc4[nH]c5ccccc5c4C3)nc(-c3cncc(F)c3)nc12 [Compound 2 Form A] | < 0.1 | < 0.1 | < 0.1 | – | – | 1.2 | 6 | 6 | 5.0 | 5 | 5 | 4.7 | 3.5 | 4 | 2.9 | 99.20 | 98.30 | 98.58 | fairly stable | 99.87 | Solubility ([1]; FaSSIF, 30 minutes): 78 µg/mL (≈ 177 µM); Solubility ([1]; FaSSIF, 120 minutes): 40 µg/mL (≈ 90.6 µM); Solubility ([1]; FaSSIF, 24 hours): 14 µg/mL (≈ 31.7 µM); Solubility ([1]; FeSSIF, 30 minutes): 58 µg/mL (≈ 131 µM); Solubility ([1]; FeSSIF, 120 minutes): 160 µg/mL (≈ 362 µM); Solubility ([1]; FeSSIF, 24 hours): 120 µg/mL (≈ 272 µM); solubility at 24 hours in FeSSIF ([1]; FeSSIF, 24 hours): highest solubility; solubility at 30 min ([1]; water, 30 minutes): < 0.1 µg/mL; solubility at 120 min ([1]; water, 120 minutes): < 0.1 µg/mL; solubility at 24 h ([1]; water, 24 hours): < 0.1 µg/mL; loss of area over four weeks ([2]; four weeks, HPLC): ~1.5 % area
3 | CC(C)c1cnn2c(N[C@@H]3CCc4[nH]c5ccccc5c4C3)nc(-c3cncc(F)c3)nc12.CS(=O)(=O)O [Compound 3 Form B] | < 0.1 | < 0.1 | < 0.1 | 1.5 | 1.5 | 1.2 | 6 | 6 | 5.7 | 5 | 5 | 4.4 | 4 | 4 | 2.4 | 91.60 | 69.61 | 16.23 | significant degradation was observed over time | 99.88 | solubility at 30 min ([1]; FaSSIF, 30 minutes): 65 µg/mL; solubility at 120 min ([1]; FaSSIF, 120 minutes): 34 µg/mL; solubility at 24 h ([1]; FaSSIF, 24 hours): 16 µg/mL; solubility at 24 hours in FeSSIF ([1]; FeSSIF, 24 hours): highest solubility; solubility at 30 min ([1]; FeSSIF, 30 minutes): 27 µg/mL; solubility at 120 min ([1]; FeSSIF, 120 minutes): 43 µg/mL; solubility at 24 h ([1]; FeSSIF, 24 hours): 160 µg/mL; solubility at 30 min ([1]; water, 30 minutes): < 0.1 µg/mL; solubility at 120 min ([1]; water, 120 minutes): < 0.1 µg/mL; solubility at 24 h ([1]; water, 24 hours): < 0.1 µg/mL; solid state of the solids at the end of the study ([2]; end of the study): lost all crystallinity and became x-ray amorphous
4 | CC(C)c1cnn2c(N[C@@H]3CCc4[nH]c5ccccc5c4C3)nc(-c3cncc(F)c3)nc12 [Compound 4 Form A] | – | – | – | 1.5 | 1.5 | 1.1 | 6 | 5.5 | 1.9 | 5 | 4.5 | 4.4 | 4.5 | 3 | 1.5 | 94.31 | 94.20 | 99.37 | exhibited degradation at 1 and 2 weeks, but the degradant peaks were no longer present at 4 weeks | 99.77 | Solubility ([1]; FaSSGF, 30 minutes): <0.1 µg/mL; Solubility ([1]; FaSSGF, 120 minutes): <0.1 µg/mL; Solubility ([1]; FaSSGF, 24 hours): <0.1 µg/mL; Solubility ([1]; FaSSIF, 30 minutes): 71 µg/mL (≈ 161 µM); Solubility ([1]; FaSSIF, 120 minutes): 38 µg/mL (≈ 86.1 µM); Solubility ([1]; FaSSIF, 24 hours): 25 µg/mL (≈ 56.6 µM); Solubility ([1]; FeSSIF, 30 minutes): 48 µg/mL (≈ 109 µM); Solubility ([1]; FeSSIF, 120 minutes): 110 µg/mL (≈ 249 µM); Solubility ([1]; FeSSIF, 24 hours): 33 µg/mL (≈ 74.7 µM); Solubility ([1]; Water, 30 minutes): <0.1 µg/mL; Solubility ([1]; Water, 120 minutes): <0.1 µg/mL; Solubility ([1]; Water, 24 hours): <0.1 µg/mL
5 | CC(C)c1cnn2c(N[C@@H]3CCc4[nH]c5ccccc5c4C3)nc(-c3cncc(F)c3)nc12 [Compound A Form B, (3R)—N-[2-(5-fluoro-3-pyridyl)-8-isopropyl-pyrazolo[1,5-a][1,3,5]triazin-4-yl]-2,3,4,9-tetrahydro-1H-carbazol-3-amine] | – | – | – | – | – | – | 6 | 6 | 6.4 | 5 | 5 | 4.8 | – | 4.5 | 7.7 | 99.22 | 99.05 | 99.58 | equally stable | – | Solubility ([1]; FaSSGF, 30 minutes): <0.1 µg/mL; Solubility ([1]; FaSSGF, 120 minutes): <0.1 µg/mL; Solubility ([1]; FaSSGF, 24 hours): <0.1 µg/mL; Solubility ([1]; FaSSIF, 30 minutes): 4.9 µg/mL (≈ 11.1 µM); Solubility ([1]; FaSSIF, 120 minutes): 11 µg/mL (≈ 24.9 µM); Solubility ([1]; FaSSIF, 24 hours): 9.5 µg/mL (≈ 21.5 µM); Solubility ([1]; FeSSIF, 30 minutes): <0.1 µg/mL; Solubility ([1]; FeSSIF, 120 minutes): 27 µg/mL (≈ 61.2 µM); Solubility ([1]; FeSSIF, 24 hours): 21 µg/mL (≈ 47.6 µM); Solubility ([1]; Water, 30 minutes): <0.1 µg/mL; Solubility ([1]; Water, 120 minutes): <0.1 µg/mL; Solubility ([1]; Water, 24 hours): <0.1 µg/mL; % Area ([2]; Time 0, HPLC, 1 mg/mL): 99.62* % Area
